Assay results as given in ChEMBL document CHEMBL1201862, “PubChem BioAssay data set” (2004).
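Grown in 96-well plates, cells were treated for 48 hours with each compound at five concentrations. Insufficient inhibition: endpoint recorded as highest concentration tested. The concentration for 50% growth inhibition is given as GI50.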 Calls of active or inactive are those of the source. Rule as the data show it: active = GI50 up to about 1.1 µM and inactive = higher.

Experiments:
Experiment in all cases: NCI anticancer screen, dose series, 48 h
786-0 = test system: 786-0
A498 = test system: A498
A549 = test system: A549
ACHN = test system: ACHN
BT-549 = test system: BT-549
CAKI-1 = test system: CAKI-1
CCRF-CEM = test system: CCRF-CEM
COLO 205 = test system: COLO 205
DU-145 = test system: DU-145
EKVX = test system: EKVX
HCT-116 = test system: HCT-116
HCT-15 = test system: HCT-15
HL-60 = test system: HL-60
HOP-62 = test system: HOP-62
HOP-92 = test system: HOP-92
HT-29 = test system: HT-29
IGROV-1 = test system: IGROV-1
K562 = test system: K562
KM12 = test system: KM12
LOX IMVI = test system: LOX IMVI
M14 = test system: M14
MCF7 = test system: MCF7
MDA-MB-231 = test system: MDA-MB-231
MDA-N = test system: MDA-N
MOLT-4 = test system: MOLT-4
NCI-H226 = test system: NCI-H226
NCI-H23 = test system: NCI-H23
NCI-H460 = test system: NCI-H460
NCI-H522 = test system: NCI-H522
NCI/ADR-RES = test system: NCI/ADR-RES
OVCAR-3 = test system: OVCAR-3
OVCAR-4 = test system: OVCAR-4
OVCAR-5 = test system: OVCAR-5
OVCAR-8 = test system: OVCAR-8
PC-3 = test system: PC-3
RPMI-8226 = test system: RPMI-8226
RXF 393 = test system: RXF 393
SF-268 = test system: SF-268
SF-295 = test system: SF-295
SF-539 = test system: SF-539
SK-MEL-28 = test system: SK-MEL-28
SK-MEL-2 = test system: SK-MEL-2
SK-MEL-5 = test system: SK-MEL-5
SK-OV-3 = test system: SK-OV-3
SN12C = test system: SN12C
SNB-19 = test system: SNB-19
SNB-75 = test system: SNB-75
SR = test system: SR
SW-620 = test system: SW-620
T47D = test system: T47D
TK-10 = test system: TK-10
U-251 = test system: U-251
UACC-257 = test system: UACC-257
UACC-62 = test system: UACC-62
UO-31 = test system: UO-31

How did the GI50 (786-0) turn out when `NN/C(=N\S(=O)(=O)c1cc(S(=O)(=O)c2ccccc2)cs1)Nc1ccc(Cl)cc1` was run?
Its GI50 is 35.2 µM (inactive).

And the GI50 (A498)?
The GI50 was 33.8 µM (inactive).

What about the GI50 (A549) of the same compound?
Its GI50 is 27.2 µM (inactive).

And the GI50 (ACHN)?
Its GI50 is 27.5 µM (inactive).

What about the GI50 (BT-549) of the same compound?
The GI50 was 31.2 µM (inactive).

What about the GI50 (CAKI-1) of the same compound?
The GI50 was 34.1 µM (inactive).

And the GI50 (CCRF-CEM)?
The GI50 was 13.5 µM (inactive).

And the GI50 (COLO 205)?
The GI50 was 19.4 µM (inactive).

What about the GI50 (DU-145) of the same compound?
Its GI50 is 26.1 µM (inactive).

What about the GI50 (EKVX) of the same compound?
The GI50 was 13.6 µM (inactive).

What about the GI50 (HCT-116) of the same compound?
The GI50 was 20.9 µM (inactive).

And the GI50 (HCT-15)?
The GI50 was 34.3 µM.

What about the GI50 (HL-60) of the same compound?
Its GI50 is 4.58 µM (inactive).

What about the GI50 (HOP-62) of the same compound?
The GI50 was 38.4 µM (inactive).

What about the GI50 (HOP-92) of the same compound?
The GI50 was 33.3 µM (inactive).

What about the GI50 (HT-29) of the same compound?
The GI50 was 36.1 µM (inactive).

What about the GI50 (IGROV-1) of the same compound?
Its GI50 is 25.9 µM (inactive).

What about the GI50 (K562) of the same compound?
The GI50 was 18.7 µM (inactive).

What about the GI50 (KM12) of the same compound?
Its GI50 is 26.1 µM (inactive).

What about the GI50 (LOX IMVI) of the same compound?
Its GI50 is 21.2 µM (inactive).

What about the GI50 (M14) of the same compound?
Its GI50 is 22 µM (inactive).

And the GI50 (MCF7)?
The GI50 was 32.4 µM (inactive).

And the GI50 (MDA-MB-231)?
Its GI50 is 27.4 µM (inactive).

And the GI50 (MDA-N)?
The GI50 was 20.5 µM (inactive).

What about the GI50 (MOLT-4) of the same compound?
Its GI50 is 18.6 µM (inactive).

And the GI50 (NCI-H226)?
The GI50 was 33.1 µM (inactive).

And the GI50 (NCI-H23)?
Its GI50 is 23.8 µM (inactive).

And the GI50 (NCI-H460)?
The GI50 was 22.5 µM (inactive).

And the GI50 (NCI-H522)?
The GI50 was 13.2 µM (inactive).

And the GI50 (NCI/ADR-RES)?
Its GI50 is 29.6 µM (inactive).

What about the GI50 (OVCAR-3) of the same compound?
Its GI50 is 20.3 µM (inactive).

And the GI50 (OVCAR-4)?
Its GI50 is 20 µM (inactive).

And the GI50 (OVCAR-5)?
Its GI50 is 66.2 µM (inactive).

And the GI50 (OVCAR-8)?
Its GI50 is 32.4 µM (inactive).

And the GI50 (PC-3)?
The GI50 was 23.3 µM (inactive).

What about the GI50 (RPMI-8226) of the same compound?
The GI50 was 22.7 µM (inactive).

What about the GI50 (RXF 393) of the same compound?
Its GI50 is 14.9 µM (inactive).

And the GI50 (SF-268)?
Its GI50 is 19.9 µM (inactive).

What about the GI50 (SF-295) of the same compound?
Its GI50 is 17.6 µM (inactive).

And the GI50 (SF-539)?
The GI50 was 42.7 µM (inactive).

What about the GI50 (SK-MEL-28) of the same compound?
The GI50 was 35.2 µM (inactive).

And the GI50 (SK-MEL-2)?
Its GI50 is 16.7 µM (inactive).

What about the GI50 (SK-MEL-5) of the same compound?
Its GI50 is 16.9 µM (inactive).

What about the GI50 (SK-OV-3) of the same compound?
The GI50 was 43.7 µM (inactive).

What about the GI50 (SN12C) of the same compound?
Its GI50 is 28.4 µM (inactive).

What about the GI50 (SNB-19) of the same compound?
The GI50 was 42.1 µM (inactive).

And the GI50 (SNB-75)?
The GI50 was 21.9 µM (inactive).

And the GI50 (SR)?
The GI50 was 9.71 µM (inactive).

What about the GI50 (SW-620) of the same compound?
The GI50 was 47.5 µM (inactive).

And the GI50 (T47D)?
Its GI50 is 13.8 µM (inactive).

And the GI50 (TK-10)?
The GI50 was 24.8 µM (inactive).

What about the GI50 (U-251) of the same compound?
Its GI50 is 23.5 µM (inactive).

And the GI50 (UACC-257)?
The GI50 was 19 µM (inactive).

What about the GI50 (UACC-62) of the same compound?
Its GI50 is 17.5 µM (inactive).

What about the GI50 (UO-31) of the same compound?
The GI50 was 28.8 µM (inactive).
